Data on eleven molecules can be found in US4937263A, “Antihypercholesterolemic compounds” (Merck & Co., Inc., priority 1989, dated 1990).

For this assay, the system named is HMG-CoA reductase. Kind of assay: HMG-CoA Reductase Inhibition Assay (in vitro, intrinsic inhibition). Conditions: IC50 of test compound compared with compactin determined simultaneously, compactin assigned 100; tested as sodium salt of dihydroxy acid form; solubilized rat liver microsomal enzyme. The assay is classed as biochemical. As for the experimental part:
The intrinsic HMG-CoA reductase inhibition activity of the claimed compounds is measured in the in vitro protocol published in J. Med. Chem., 28, p. 347-358 (1985) and described below:
Male Holtzman Sprague-Dawley rats (225-250 g) were kept on reversed lighting and fed Purina rat chow containing 3% cholestyramine for 7 days preceding their sacrifice by CO2 asphyxiation. Livers were removed 6 hours into the dark cycle and used immediately to prepare microsomes. HMG-CoA reductase was solubilized from the freshly prepared microsome by the method of Heller and Shrewsbury [J. Biol. Chem., 1976, 251, 3815] and purified through the second ammonium sulfate precipitation step as described by Kleinsek et al. [Proc. Natl. Acad. Sci. U.S.A., 1977, 74, 1431]. The enzyme preparation was tested for HMG-CoA reductase potency and diluted with 100 mM phosphate buffer (pH 7.2) so that 100 μl of the enzyme solution, when added to the assay control, gave a value of 50,000-60,000 dpm. The enzyme preparation was stored at -80° C.
The assay is essentially the procedure of Shefer et al. [J. Lipid Res., 1972, 13, 402]. The complete assay medium contained the following in a total volume of 0.8 ml: phosphate buffer, pH 7.2, 100 mM; MgCl2, 3 mM; NADP, 3 mM; glucose 6-phosphate, 10 mM; glucose-6-phosphate dehydrogenase, 3 enzyme units; reduced glutathione, 50 mM; HMG-CoA (glutaryl-3-^14 C., New England Nuclear), 0.2 mM (0.1 μCi); and partially purified enzyme stock solution, 100 μL.
Test compounds or compactin (after first being converted to the sodium salt of their dihydroxy acid form in situ by addition of IN NaOH (1 equivalent) were added to the assay system in 10 μL volumes at multiconcentration levels. After a 40 minute incubation at 37° C. with shaking and, exposure to air, the reaction was stopped by the addition of 0.4 mL of 8 N HCl. After an additional 30-minute incubation period at 37° C. to ensure the complete lactonization of mevalonic acid to mevalonolactone, 0.2 ml of the mixture was added to an 0.5×5.0 cm column containing 100-200 mesh Bio-Rex 5,chloride form (Bio-Rad), wetted with distilled water, as described by Alberts et al [J. Proc. Natl. Acad. Sci. U.S.A., 1980, 77, 3967]. The unreacted [^14 C]HMG-CoA was absorbed on the resin and the [^14 C]mevalonolactone was eluted with distilled water (2×1 ml) directly into 7-ml scintillation vials. Five milliliters of Aquasol-2 (New England Nuclear) was added to each vial, and radioactivity was measured in a Packard Tri Carb Prias scintillation counter. IC50 values were determined by plotting percentage inhibition against test compound concentration and fitting a straight line to the resulting data by using the least squares method. For estimation of relative inhibitory potencies, compactin was assigned a value of 100 and the IC50 value of the test compound was compared with that of compactin determined simultaneously.
(Liver microsomes are a subcellular fraction often used to study metabolism.)
In the case of `C[C@H]1C=C2C=C[C@H](C)[C@H](CC[C@@H](O)C[C@@H](O)CC(=O)O)[C@H]2[C@@H](OC(=O)C(C)(C)c2ccccc2)C1`, the “Relative Potency” value turned out to be 88.

For `C[C@H]1C=C2C=C[C@H](C)[C@H](CC[C@@H](O)C[C@@H](O)CC(=O)O)[C@H]2[C@@H](OC(=O)C(C)(C)c2ccc(O)cc2)C1`, the “Relative Potency” value is 217.

Take `C[C@H]1C=C2C=C[C@H](C)[C@H](CC[C@@H](O)C[C@@H](O)CC(=O)O)[C@H]2[C@@H](OC(=O)C(C)(C)c2cccc(O)c2)C1`: the “Relative Potency” value is reported as 197.

For the molecule `C[C@H]1C=C2C=C[C@H](C)[C@H](CC[C@@H](O)C[C@@H](O)CC(=O)O)[C@H]2[C@@H](OC(=O)C(C)(C)Cc2ccccc2)C1`, the “Relative Potency” value stood at 173.

Take `COc1ccc(C(C)(C)C(=O)O[C@H]2C[C@@H](C)C=C3C=C[C@H](C)[C@H](CC[C@@H](O)C[C@@H](O)CC(=O)O)[C@H]32)cc1`: the “Relative Potency” value is listed as 144.

Regarding `C[C@H]1C=C2C=C[C@H](C)[C@H](CC[C@@H](O)C[C@@H](O)CC(=O)O)[C@H]2[C@@H](OC(=O)C(C)(C)c2ccc(CO)cc2)C1`, the “Relative Potency” value was found to be 36.

For the molecule `C[C@H]1C=C2C=C[C@H](C)[C@H](CC[C@@H](O)C[C@@H](O)CC(=O)O)[C@H]2[C@@H](OC(=O)C(C)(C)c2ccc(O)c(F)c2)C1`, the “Relative Potency” value was determined as 217.

Turning to `C[C@H]1C=C2C=C[C@H](C)[C@H](CC[C@@H](O)C[C@@H](O)CC(=O)O)[C@H]2[C@@H](OC(=O)C(C)(C)Cc2ccc(O)cc2)C1`, the “Relative Potency” value is 280.

For the molecule `C[C@H]1C=C2C=C[C@H](C)[C@H](CC[C@@H](O)C[C@@H](O)CC(=O)O)[C@H]2[C@@H](OC(=O)C(C)(C)Cc2cc(O)cc(O)c2)C1`, the “Relative Potency” value came out at 333.

`C[C@H]1C=C2C=C[C@H](C)[C@H](CC[C@@H](O)C[C@@H](O)CC(=O)O)[C@H]2[C@@H](OC(=O)C(C)(C)CCc2ccccc2)C1`: the “Relative Potency” value was found to be 100.

For the molecule `CCOc1ccc(C(C)(C)C(=O)O[C@H]2C[C@@H](C)C=C3C=C[C@H](C)[C@H](CC[C@@H](O)C[C@@H](O)CC(=O)O)[C@H]32)cc1`, the “Relative Potency” value is listed as 47.
